Measurements published in patent publication US10576059B2, “Substituted phenylpyrrolecarboxamides with therapeutic activity in HIV” (New York Blood Center, Inc., priority 2014, dated 2020).
Like-named read-outs stand apart in the source and are kept apart here.

Experiments:
[1] = test system: panel of HIV-1 ENV-pseudoviruses (subtype A, A/D, A2/D, A/E, A/G, B, C and D); test: microbe, parasite or virus in culture; type: cell-based
[2] = test system: cell-to-cell fusion mediated by HIV-1 (HIV-1HXB2 Env); test: microbe, parasite or virus in culture; type: cell-based; details: Human immunodeficiency virus 1; MAGI-CCR5 and HL 2/3 cells, 24 h, β-gal readout
Description: To assess the ability of NBD-compounds to block cell-to-cell fusion mediated by HIV-1 we performed cell fusion assay as previously described 3^1-3 with some modifications. […] Following fusion of the two cell lines Tat induce the expression of β-gal enzyme. […] The percent inhibition and the IC50 values were calculated using the GraphPad Prism software.

HIV-1 Integrase = target: T1, HIV-1 Integrase (Human immunodeficiency virus type 1 group M subtype B, UniProt P04585); test: HIV-1 Integrase Assay; type: biochemical; details: HIV-1 Integrase Assay Kit from ExpressBio
T1 construct: HIV-1 Integrase Assay Kit from ExpressBio; purchased ExpressBio (Thurnmont, Md.)
Description: HIV-1 Integrase was performed as per the protocol in the HIV-1 Integrase Assay Kit from ExpressBio (Thurnmont, Md.). (See Table 3)

PBMC = test: Cytotoxicity in PBMC (XTT); type: cell-based; details: 7 days
Description: For the PBMC toxicity assay we used 5×10^5 cells/ml and the cytotoxicity of the compounds was measured after 7 days of incubation as previously reported^8. Following the addition of XTT the soluble intracellular formazan was quantitated colorimetrically at 450 nm 4 h later. The percent of cytotoxicity and the CC50 values were calculated as above. (See Table 4)

[3] = test system: lab-adapted and primary HIV-1 isolates; test: microbe, parasite or virus in culture; details: Human immunodeficiency virus 1, PBMC
Description: (§1) PBMCs were isolated from the blood of healthy donors at the New York Blood Center by standard density gradient centrifugation using Histopaque-1077 (Sigma-Aldrich). The cells were cultured at 37° C. for 2 hr. […] The PHA-stimulated cells (5×10^4 cells/well) were infected with lab-adapted and primary HIV-1 isolates at 500 TCID50 (0.01 MOI) in the absence or presence of inhibitors at graded concentrations. Culture media were replaced every 3 days with fresh media. The supernatants were collected 7 days post-infection and tested for p24 antigen by ELISA. The percent inhibition of p24 production and IC50 values were calculated by the GraphPad Prism software.

[4] = test system: laboratory-adapted HIV-1 strains; test: microbe, parasite or virus in culture; type: cell-based
[5] = test system: lab-adapted and primary HIV-1 isolates; details: read-out: IC50 (μm); Laboratory strain BaL, subtype B, PBMC, co-receptor R5
Description: as §1

MT-2 cells = test: Cytotoxicity in MT-2 cells (XTT); type: cell-based; details: 4 days
Description: Cytotoxicity of test compounds in MT-2 cells was measured a by colorimetric method using XTT [(sodium 3′-(1-(phenylamino)-carbonyl)-3,4-tetrazolium-bis(4-methoxy-6-nitro) benzenesulfonic acid hydrate)] (PolySciences) as previously described^7. Briefly, 100 μl of a test compound at graded concentrations was added to an equal volume of cells (1×10^5 cells/ml) in 96 well plates followed by incubation at 37° C. for 4 days, which ran parallel to the neutralization assay in MT-2. Following the addition of XTT the soluble intracellular formazan was quantitated colorimetrically at 450 nm 4 h later. […] (See Table 4)

[6] = Human immunodeficiency virus 1, TZM-bl, read-out: IC50 (μM) ± S.D., subtype A2/D, NIH # 11906, ENV QG393.60M.ENV.B7
[7] = Human immunodeficiency virus 1, TZM-bl, read-out: IC50 (μM) ± S.D., subtype A, NIH # 11888, ENV QB726.70M.ENV.C4
[8] = Human immunodeficiency virus 1, TZM-bl, read-out: IC50 (μM) ± S.D., subtype A, NIH # 11889, ENV QB726.70M.ENV.B3
[9] = Human immunodeficiency virus 1, TZM-bl, read-out: IC50 (μM) ± S.D., subtype A/E (potential), NIH # 11603, ENV CRF01_AE clone 269
[10] = Human immunodeficiency virus 1, TZM-bl, read-out: IC50 (μM) ± S.D., subtype A/G, NIH # 11605, ENV CRF02_AG clone 278
[11] = Human immunodeficiency virus 1, TZM-bl, read-out: IC50 (μM) ± S.D., subtype B, ENV B41
[12] = Human immunodeficiency virus 1, TZM-bl, read-out: IC50 (μM) ± S.D., subtype B, NIH # 11018, ENV QH0692, clone 42
[13] = Human immunodeficiency virus 1, TZM-bl, read-out: IC50 (μM) ± S.D., subtype B, NIH # 11022, ENV PVO, clone 4
[14] = Human immunodeficiency virus 1, TZM-bl, read-out: IC50 (μM) ± S.D., subtype B, NIH # 11035, ENV pREJO4541 clone 67
[15] = Human immunodeficiency virus 1, TZM-bl, read-out: IC50 (μM) ± S.D., subtype C, NIH # 11307, ENV Du172, clone 17
[16] = Human immunodeficiency virus 1, TZM-bl, read-out: IC50 (μM) ± S.D., subtype C, NIH # 11311, ENV ZM233M.PB6
[17] = Human immunodeficiency virus 1, TZM-bl, read-out: IC50 (μM) ± S.D., subtype C, NIH # 11313, ENV ZM53M.PB12
[18] = Human immunodeficiency virus 1, TZM-bl, read-out: IC50 (μM) ± S.D., subtype D, NIH # 11918, ENV QD435.100M.ENV.E1

Cc1nc(C(NC(=O)c2ccc(-c3ccc(Cl)cc3)[nH]2)C2CCCCN2)sc1CO (single isomer, unassigned) [Compound 17] gave an IC50 [1, 6] of 0.8 ± 0.3 µM, an IC50 ([1]; Human immunodeficiency virus 1, TZM-bl, read-out: IC50 (μM) ± S.D., subtype A, NIH # 11887, ENV Q259env.w6) of 1.6 ± 0.1 µM and an IC50 [1, 7] of 1.3 ± 0.3 µM. The IC50 [1, 8] was 1.3 ± 0.4 µM, the IC50 ([1]; Human immunodeficiency virus 1, TZM-bl, read-out: IC50 (μM) ± S.D., subtype A, NIH # 11890, ENV QF495.23M.ENV.A1) was 1.3 ± 0.4 µM and the IC50 ([1]; Human immunodeficiency virus 1, TZM-bl, read-out: IC50 (μM) ± S.D., subtype A, NIH # 11891, ENV QF495.23M.ENV.A3) was 0.88 ± 0.4 µM. The IC50 ([1]; Human immunodeficiency virus 1, TZM-bl, read-out: IC50 (μM) ± S.D., subtype A, NIH # 11892, ENV QF495.23M.ENV.B2) was 0.6 ± 0.4 µM, the IC50 ([1]; Human immunodeficiency virus 1, TZM-bl, read-out: IC50 (μM) ± S.D., subtype A/D, NIH # 11901, ENV QA790.2041.ENV.A4) was 1.4 ± 0.05 µM and the IC50 ([1]; Human immunodeficiency virus 1, TZM-bl, read-out: IC50 (μM) ± S.D., subtype A/D, NIH # 11903, ENV QA790.2041.ENV.C8) was 1.6 ± 0.2 µM. The IC50 [1, 9] was 1.5 ± 0.3 µM, the IC50 ([1]; Human immunodeficiency virus 1, TZM-bl, read-out: IC50 (μM) ± S.D., subtype A/G, NIH # 11601, ENV CRF02 AG clone 263) was 1.4 ± 0.3 µM and the IC50 [1, 10] was 1.3 ± 0.5 µM. For the same molecule, the IC50 [1, 11] was 0.68 ± 0.1 µM, the IC50 [1, 12] was 0.52 ± 0.1 µM and the IC50 [1, 13] was 1.9 ± 0.1 µM. It also gave an IC50 ([1]; Human immunodeficiency virus 1, TZM-bl, read-out: IC50 (μM) ± S.D., subtype B, NIH # 11033, ENV pWITO4160 clone 33) of 1.7 ± 0.1 µM, an IC50 [1, 14] of 1.6 ± 0.3 µM and an IC50 ([1]; Human immunodeficiency virus 1, TZM-bl, read-out: IC50 (μM) ± S.D., subtype B, NIH # 11038, ENV pCAAN5342 clone A2) of 0.6 ± 0.07 µM. It also gave an IC50 [1, 15] of 1.9 ± 0.5 µM, an IC50 [1, 16] of 1.3 ± 0.1 µM and an IC50 [1, 17] of 1.5 ± 0.2 µM. The IC50 ([1]; Human immunodeficiency virus 1, TZM-bl, read-out: IC50 (μM) ± S.D., subtype D, NIH # 11916, ENV QD435.100M.ENV.B5) was 1.7 ± 0.5 µM, the IC50 [1, 18] was 3.7 ± 0.1 µM and the IC50 [2] was 10.8 µM.
In the case of Cc1nc(C(NC(=O)c2ccc(-c3ccc(Cl)cc3)[nH]2)C2CCCCN2)sc1CO (single isomer, unassigned) [Compound 19], the IC50 [1, 7] is reported as 1.5 ± 0.6 µM, the IC50 [1, 9] is reported as 1.7 ± 0.9 µM and the IC50 [1, 10] is reported as 1.8 ± 0.2 µM. For the same molecule, the IC50 ([1]; Human immunodeficiency virus 1, TZM-bl, read-out: IC50 (μM) ± S.D., subtype B, NIH # 11578, ENV pWEAUd15.410.5017) was 1.7 ± 0.03 µM, the IC50 ([1]; Human immunodeficiency virus 1, TZM-bl, read-out: IC50 (μM) ± S.D., subtype C, NIH # 11310, ENV ZM214M.PL15) was 1.7 ± 0.6 µM and the IC50 ([1]; Human immunodeficiency virus 1, TZM-bl, read-out: IC50 (μM) ± S.D., subtype C, NIH # 11314, ENV ZM109F.PB4) was 1.9 ± 0.3 µM. For the same molecule, the IC50 ([1]; Human immunodeficiency virus 1, TZM-bl, read-out: IC50 (μM) ± S.D., subtype D, NIH # 11912, ENV QA013.701.ENV.M12) was 1.7 ± 0.2 µM, the IC50 ([1]; read-out: IC50 (μM) ± S.D., subtype A2/D, NIH # 11906, ENV QG393.60M.ENV.B7) was 1.4 ± 0.5 µM and the IC50 ([1]; read-out: IC50 (μM) ± S.D., subtype A, NIH # 11890, ENV QF495.23M.ENV.A1) was 0.86 ± 0.4 µM. For the same molecule, the IC50 ([1]; read-out: IC50 (μM) ± S.D., subtype A, NIH # 11891, ENV QF495.23M.ENV.A3) was 1.3 ± 0.3 µM, the IC50 ([1]; read-out: IC50 (μM) ± S.D., subtype A, NIH # 11892, ENV QF495.23M.ENV.B2) was 1.1 ± 0.2 µM and the IC50 ([1]; read-out: IC50 (μM) ± S.D., subtype A/D, NIH # 11903, ENV QA790.2041.ENV.C8) was 1.6 ± 0.2 µM. It also gave an IC50 ([1]; read-out: IC50 (μM) ± S.D., subtype B, ENV B41) of 1.1 ± 0.4 µM, an IC50 ([1]; read-out: IC50 (μM) ± S.D., subtype B, NIH # 11018, ENV QH0692, clone 42) of 0.9 ± 0.3 µM and an IC50 ([1]; read-out: IC50 (μM) ± S.D., subtype B, NIH # 11022, ENV PVO, clone 4) of 1.1 ± 0.2 µM. For the same molecule, the IC50 ([1]; read-out: IC50 (μM) ± S.D., subtype B, NIH # 11024, ENV AC10.0, clone 29) was 0.74 ± 0.25 µM, the IC50 ([1]; read-out: IC50 (μM) ± S.D., subtype B, NIH # 11038, ENV pCAAN5342 clone A2) was 0.64 ± 0.01 µM and the IC50 ([1]; subtype A, NIH # 11889, ENV QB726.70M.ENV.B3, read-out: IC50 (μM) ± S.D.) was 2.4 ± 0.9 µM. The IC50 [2] was 7.6 µM.
For Cc1nc(C(CN)NC(=O)c2ccc(-c3ccc(Cl)cc3)[nH]2)sc1CO (single isomer, unassigned) [Compound 39], the IC50 (HIV-1 Integrase) was > 100 µM.
Cc1nc(C(NC(=O)c2ccc(-c3ccc(Cl)cc3)[nH]2)C2CCCCN2)sc1CO (centres unmarked) [Compound 15] was tested, and the IC50 [1, 6] was 1.7 ± 0.2 µM, the IC50 [1, 8] was 1.5 ± 0.9 µM and the IC50 ([1]; Human immunodeficiency virus 1, TZM-bl, read-out: IC50 (μM) ± S.D., subtype A/G, NIH # 11602, ENV CRF02_AG clone 266) was 1.6 ± 0.5 µM. For the same molecule, the IC50 [1, 11] was 1.1 ± 0.1 µM, the IC50 [1, 12] was 0.7 ± 0.2 µM and the IC50 [1, 13] was 1.7 ± 0.1 µM. For the same molecule, the IC50 ([1]; Human immunodeficiency virus 1, TZM-bl, read-out: IC50 (μM) ± S.D., subtype B, NIH # 11023, ENV TRO, clone 11) was 1.3 ± 0.2 µM, the IC50 [1, 14] was 1.8 ± 0.2 µM and the IC50 [1, 15] was 1.5 ± 0.3 µM. It also gave an IC50 [1, 16] of 1.4 ± 0.2 µM, an IC50 [1, 17] of 1.3 ± 0.2 µM and an IC50 [1, 18] of 4 ± 0.8 µM. It also gave an IC50 ([1]; read-out: IC50 (μM) ± S.D., subtype B, NIH # 11058, ENV SC422661.8) of 0.6 ± 0.1 µM, an IC50 ([1]; subtype A, ENV BG505-T332N, read-out: IC50 (μM) ± S.D.) of 2.4 ± 1 µM and an IC50 ([1]; subtype D, NIH # 11912, ENV QA013.701.ENV.M12, read-out: IC50 (μM) ± S.D.) of 2.4 ± 0.2 µM. It also gave a CC50 (PBMC) of ~36000 nM, an IC50 ([3]; read-out: IC50 (μm), Laboratory strain BaL, subtype B, PBMC, co-receptor R5) of 3700 ± 400 nM and an IC50 ([3]; read-out: IC50 (μm), Primary isolate 93TH060, subtype E, PBMC, co-receptor R5) of 5500 ± 1200 nM. It also gave an IC50 ([4]; Human immunodeficiency virus 1, MT2, read-out: IC50 (μm), Laboratory strain RF, subtype B, MT-2, co-receptor R5X4) of 7300 ± 600 nM.
In the case of CC1(C)CC(NC(=O)C(=O)Nc2ccc(Cl)cc2)CC(C)(C)N1 [NBD-556], the IC50 [5] is reported as 118000 nM, the CC50 (PBMC) is reported as > 280000 nM and the IC50 (HIV-1 Integrase) is reported as > 200 µM. For the same molecule, the IC50 ([4]; Laboratory strain SF2, subtype B, MT-2, co-receptor R5X4, read-out: IC50 (μm)) was 118000 nM and the CC50 (MT-2 cells) was > 280000 nM.
